Patent US11814376B2, “Hepatitis b core protein modulators” (Assembly Biosciences, Inc., priority 2015, dated 2023)
Where two headings read alike, the source gives them in different places.

Columns and labels:
[1] = tested on: HBV viral load in AD38 cells; assay: Viral load production in AD38 cells, quantitative PCR of the core sequence in supernatant; assay type: cell-based; conditions: for activity at 10 µM: Hepatitis B virus, 144 h, read-out: AD38 Viral Load (%) (VL with cmpd/VL in DMSO control) at 10 μM
AD38 cells = assay: Viability of AD38 cells (Promega CellTiter-Glo); assay type: cell-based; conditions: 10 μM compound, 6 days, CellTiter-Glo luminescence normalized to DMSO control (100%)
In short: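 After 6 days of compound exposure at 37° C (compound added as 10× solution in 10% DMSO; 50,000 cells/well, collagen-coated), medium was replaced with tetracycline-free DMEM/F12, 2% FBS, 1% DMSO. CellTiter-Glo luminescence was then recorded and normalized to DMSO-treated wells as 100% viability.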

[2] = 10 μM compound, 6 days at 37° C., supernatant qPCR, relative to DMSO control

SMILES	activity at 10 µM [1, 2] [%]	AD38 Viability Normalized Result (cmpd/DMSO %) at 10 μM (AD38 cells) [%]	activity at 10 µM [1] [%]	AD38 Viral Load (%) (VL with cmpd/VL in DMSO control) at 10 μM [1, 2]
O=C(NCc1cnc(-c2ccc(OCCCNCC(F)(F)F)cc2)s1)c1ccc2c(c1)NC(=O)c1ccccc1S2(=O)=O [compound 11102]	0.5	93	–	–
Cl.O=C(NCc1cnc(-c2ccc(O[C@@H]3CCNC3)cc2)s1)c1ccc2c(c1)NC(=O)c1ccccc1S2(=O)=O [compound 11103, (R)-11-oxo-N-((2-(4-(pyrrolidin-3-yloxy)phenyl)thiazol-5-yl)methyl)-10, 11-dihydrodibenzo [b, f] [1, 4] thiazepine-8-carboxamide 5,5-dioxide hydrochloride]	2.5	102	–	–
Cl.O=C(NCc1cnc(-c2ccc(OC[C@H]3CCCN3)cc2)s1)c1ccc2c(c1)NC(=O)c1ccccc1S2(=O)=O [compound 11104, (R)-11-oxo-N-((2-(4-(pyrrolidin-2-ylmethoxy)phenyl)thiazol-5-yl)methyl)-10, 11-dihydrodibenzo [b, f] [1, 4] thiazepine-8-carboxamide 5,5-dioxide hydrochloride]	9.4	97	–	–
O=C(NCc1cnc(-c2ccc(OCCCN3CCC3)cc2)s1)c1ccc2c(c1)NC(=O)c1ccccc1S2(=O)=O [compound 11105]	1.6	95	–	–
O=C(NCc1cnc(-c2ccc(OCCCN3CCC[C@H]3C(=O)O)cc2)s1)c1ccc2c(c1)NC(=O)c1ccccc1S2(=O)=O [compound 11106, (3-(4-(5-((5,5-dioxido-11-oxo-10, 11-dihydrodibenzo [b, f] [1, 4]thiazepine-8-carboxamido)methyl)thiazol-2-yl)phenoxy)propyl)-L-proline]	3.3	97	–	–
O=C(NCc1cnc(-c2ccc(OCCCN3CCC(C(=O)O)C3)cc2)s1)c1ccc2c(c1)NC(=O)c1ccccc1S2(=O)=O (centres unmarked) [compound 11107, 1-(3-(4-(5-((5,5-dioxido-11-oxo-10, 11-dihydrodibenzo [b, f] [1, 4]thiazepine-8-carboxamido)methyl)thiazol-2-yl)phenoxy)propyl) pyrrolidine-3-carboxylic acid]	6.4	96	–	–
O=C(NCc1cnc(-c2ccc(OCCC[N+]34CCC(CC3)CC4)cc2)s1)c1ccc2c(c1)NC(=O)c1ccccc1S2(=O)=O.[Br-] [compound 11108, 1-(3-(4-(5-((5,5-dioxido-11-oxo-10, 11-dihydrodibenzo [b, f] [1, 4]thiazepine-8-carboxamido)methyl)thiazol-2-yl)phenoxy)propyl) quinuclidin-1-ium bromide]	–	95	11.2	–
CN(C)CC1(COc2ccc(-c3ncc(CNC(=O)c4ccc5c(c4)NC(=O)c4ccccc4S5(=O)=O)s3)cc2)CC1 [compound 11112]	4	100	–	–
CN(C)CC1(COc2ccc(-c3ncc(CNC(=O)c4ccc5c(c4)NC(=O)c4ccccc4S5(=O)=O)s3)cc2)CCC1 [compound 11113]	4.9	92	–	–
CCOC(=O)c1cnn(-c2ncc(CNC(=O)c3ccc4c(c3)NC(=O)c3ccccc3S4(=O)=O)s2)c1 [compound 11116]	0.9	97	–	–
CCOC(=O)/C=C/c1cnn(-c2ncc(CNC(=O)c3ccc4c(c3)NC(=O)c3ccccc3S4(=O)=O)s2)c1 [compound 11118]	1.9	95	–	–
CN1CCC[C@@H]1COc1ccc(-c2ncc(CNC(=O)c3ccc4c(c3)NC(=O)c3ccccc3S4(=O)=O)s2)cc1 [compound 11131, (R)—N-((2-(4-((1-methylpyrrolidin-2-yl)methoxy)phenyl)thiazol-5-yl)methyl)-11-oxo-10,11-dihydrodibenzo [b, f] [1, 4] thiazepine-8-carboxamide 5,5-dioxide]	2	88	–	–
CN1CC[C@H](Oc2ccc(-c3ncc(CNC(=O)c4ccc5c(c4)NC(=O)c4ccccc4S5(=O)=O)s3)cc2)C1 [compound 11134, (S)—N-((2-(4-((1-methylpyrrolidin-3-yl)oxy)phenyl)thiazol-5-yl)methyl)-11-oxo-10, 11-dihydrodibenzo [b, f] [1, 4] thiazepine-8-carboxamide 5,5-dioxide]	1.4	90	–	–
CN1CCC[C@H]1COc1ccc(-c2ncc(CNC(=O)c3ccc4c(c3)NC(=O)c3ccccc3S4(=O)=O)s2)cc1 [compound 11135, (S)—N-((2-(4-((1-methylpyrrolidin-2-yl)methoxy)phenyl)thiazol-5-yl)methyl)-11-oxo-10,11-dihydrodibenzo [b, f] [1, 4] thiazepine-8-carboxamide 5,5-dioxide]	1.8	91	–	–
O=C(NCc1cnc(-c2ccc(OCC3CCNCC3)cc2)s1)c1ccc2c(c1)NC(=O)c1ccccc1S2(=O)=O [compound 11137, 11-oxo-N-((2-(4-(piperidin-4-ylmethoxy)phenyl)thiazol-5-yl)methyl)-10, 11-dihydrodibenzo [b, f] [1, 4] thiazepine-8-carboxamide 5,5-dioxide]	3.6	96	–	–
CN1CCC(COc2ccc(-c3ncc(CNC(=O)c4ccc5c(c4)NC(=O)c4ccccc4S5(=O)=O)s3)cc2)CC1.Cl [compound 11138, N-((2-(4-((1-methylpiperidin-4-yl)methoxy)phenyl)thiazol-5-yl)methyl)-11-oxo-10, 11-dihydrodibenzo [b, f] [1, 4] thiazepine-8-carboxamide 5,5-dioxide hydrochloride]	1	96	–	–
Cl.O=C(NCc1cnc(-c2ccc(OC[C@H]3CCNC3)cc2)s1)c1ccc2c(c1)NC(=O)c1ccccc1S2(=O)=O [compound 11139, (S)-11-oxo-N-((2-(4-(pyrrolidin-3-ylmethoxy)phenyl)thiazol-5-yl)methyl)-10, 11-dihydrodibenzo [b, f] [1, 4] thiazepine-8-carboxamide 5,5-dioxide hydrochloride]	5.5	104	–	–
O=C(NCc1cnc(-c2ccc(OC[C@@H]3CCNC3)cc2)s1)c1ccc2c(c1)NC(=O)c1ccccc1S2(=O)=O [compound 11140, (R)-11-oxo-N-((2-(4-(pyrrolidin-3-ylmethoxy)phenyl)thiazol-5-yl)methyl)-10, 11-dihydrodibenzo [b, f] [1, 4] thiazepine-8-carboxamide 5,5-dioxide]	5.5	99	–	–
O=C(NCc1cnc(-c2ccc(OCCCN3CCC3)cc2)s1)c1ccc2c(c1)NC(=O)c1ccccc1S2(=O)=O [compound 11142]	–	87	–	0.8
Cc1c(C(=O)NCc2cnc(-n3cc(F)cn3)s2)ccc2c1NC(=O)c1ccccc1S2(=O)=O [compound 11148]	0.3	98	–	–
Cc1c(C(=O)NCc2cnc(-n3cc(C(F)(F)F)cn3)s2)ccc2c1NC(=O)c1ccccc1S2(=O)=O [compound 11149]	0.2	100	–	–
Cc1c(C(=O)NCc2cnc(-c3ccc(F)cn3)s2)ccc2c1NC(=O)c1ccccc1S2(=O)=O [compound 11150]	0.4	100	–	–
Cc1c(C(=O)NCc2cnc(-c3cc[nH]n3)s2)ccc2c1NC(=O)c1ccccc1S2(=O)=O [compound 11152]	1.6	96	–	–
CN(C)C1CN(Cc2ccc(-c3ncc(CNC(=O)c4ccc5c(c4)NC(=O)c4ccccc4S5(=O)=O)s3)cc2)C1 [compound 11158]	6.4	100	–	–
O=C(NCc1cnc(-c2ccc(OCCCN3CCCCC3)cc2)s1)c1ccc2c(c1)NC(=O)c1ccccc1O2 [compound 11160, 11-oxo-N-((2-(4-(3-(piperidin-1-yl)propoxy)phenyl)thiazol-5-yl)methyl)-10, 11-dihydrodibenzo [b, f] [1, 4] oxazepine-8-carboxamide]	17.7	104	–	–
O=C(NCc1cnc(-c2ccc(OCCCN3CCOCC3)cc2)s1)c1ccc2c(c1)NC(=O)c1ccccc1O2 [compound 11161, N-((2-(4-(3-morpholinopropoxy)phenyl)thiazol-5-yl)methyl)-11-oxo-10, 11-dihydrodibenzo [b, f] [1, 4] oxazepine-8-carboxamide]	1.7	104	–	–
CCN(CC)CCCOc1ccc(-c2ncc(CNC(=O)c3ccc4c(c3)NC(=O)c3ccccc3O4)s2)cc1.Cl [compound 11162, N-((2-(4-(3-(diethylamino)propoxy)phenyl)thiazol-5-yl)methyl)-11-oxo-10, 11-dihydrodibenzo [b, f] [1, 4] oxazepine-8-carboxamide hydrochloride]	8.7	104	–	–
N#CC1(COc2ccc(-c3ncc(CNC(=O)c4ccc5c(c4)NC(=O)c4ccccc4S5(=O)=O)s3)cc2)CCC1 [compound 11182]	0.7	104	–	–
